In US20250084056A1, “SUBSTITUTED OXOISOINDOLINYL PIPERIDINE-2,6-DIONE COMPOUNDS” (BRISTOL-MYERS SQUIBB COMPANY, priority 2023, published 2025):

Columns and labels:
pS807/811 Rb1 = assay: Inhibition of RB1 phosphorylation (Western blot) in HCC1569 cells; format: cell-based; details: HCC1569 cancer cells, 24 h, FIG. 1B
Method: The assay measured the ability of the compound to degrade Cyclin E1, inhibit RB phosphorylation, and to determine the selectivity against degradation of GSPT1 in cancer cells in vitro. HCC1569 cells (ATCC #CRL-2330) were cultured in RPMI media (Gibco, catalog A104910) supplemented with 10% FBS (Gibco, catalog 10091148). Cells were plated in tissue culture-treated 6 well plates at a density of 0.5 million cells per well in 2 mL media. The cells were then incubated overnight in a cell culture incubator (5% CO2 and 37° C.) and allowed to attach to the plate. The following day cells were dosed with compounds at the desired concentrations. Compounds were first resuspended in DMSO to make 10 mM stock, and 20 μM stock was prepared by diluting 10 mM stock in culture media. […] Total protein concentration was measured using a BCA assay kit (Thermo Scientific, cat #P123227). […] Protein was then detected by incubating blots with 2 mL of HRP detection reagent (Thermo scientific cat #A38556) for one minute at room temperature. Excess reagent was drained and gently removed on a Kimwipe and the chemiluminescence signal was detected using Fluorchem imaging system. […] Relative quantification of western blots was performed using ImageJ software, data was then normalized to loading control (β-Actin) first and then to the DMSO-treated sample. […]

Cyclin E1 = Cyclin E1 (Homo sapiens, UniProt P24864+Q96SW2); assay: Cyclin E1 Cellular Degradation Assay (MSD); format: cell-based; set-up: endogenous in cells; host or cells: OVCAR3
How it was run: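 Cyclin E1 remaining after 24 h compound exposure of OVCAR3 cells was quantified in lysates by electrochemiluminescent MSD sandwich assay. DC50 (50% response concentration) and Dmax (maximum response) were calculated, with 110% response set by a reference compound at […].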

Cyclin E1, sequence (P24864 whole entry): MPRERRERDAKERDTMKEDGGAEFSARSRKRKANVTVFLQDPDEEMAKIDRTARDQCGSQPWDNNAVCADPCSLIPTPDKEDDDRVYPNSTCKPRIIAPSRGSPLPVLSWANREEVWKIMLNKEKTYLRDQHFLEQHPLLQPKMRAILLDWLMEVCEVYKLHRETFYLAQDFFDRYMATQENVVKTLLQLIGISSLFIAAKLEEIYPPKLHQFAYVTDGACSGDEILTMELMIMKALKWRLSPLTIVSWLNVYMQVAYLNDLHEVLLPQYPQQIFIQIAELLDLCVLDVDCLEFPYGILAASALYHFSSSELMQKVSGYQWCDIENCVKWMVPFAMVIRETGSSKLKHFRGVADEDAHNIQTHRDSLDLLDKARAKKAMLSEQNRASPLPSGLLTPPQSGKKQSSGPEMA
Cyclin E1, sequence (Q96SW2 whole entry): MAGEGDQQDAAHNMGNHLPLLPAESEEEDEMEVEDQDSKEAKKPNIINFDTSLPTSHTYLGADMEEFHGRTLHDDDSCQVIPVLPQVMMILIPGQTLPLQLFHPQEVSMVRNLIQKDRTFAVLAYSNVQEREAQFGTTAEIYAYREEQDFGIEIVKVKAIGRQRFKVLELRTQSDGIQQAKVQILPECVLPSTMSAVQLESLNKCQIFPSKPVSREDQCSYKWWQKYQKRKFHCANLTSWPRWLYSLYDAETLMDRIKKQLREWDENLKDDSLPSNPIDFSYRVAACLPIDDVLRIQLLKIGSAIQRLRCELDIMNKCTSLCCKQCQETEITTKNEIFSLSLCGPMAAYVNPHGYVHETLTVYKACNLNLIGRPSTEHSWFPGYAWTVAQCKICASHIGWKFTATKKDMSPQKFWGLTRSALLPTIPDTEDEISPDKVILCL
Cyclin E1, sequence (Q16531 whole entry partner): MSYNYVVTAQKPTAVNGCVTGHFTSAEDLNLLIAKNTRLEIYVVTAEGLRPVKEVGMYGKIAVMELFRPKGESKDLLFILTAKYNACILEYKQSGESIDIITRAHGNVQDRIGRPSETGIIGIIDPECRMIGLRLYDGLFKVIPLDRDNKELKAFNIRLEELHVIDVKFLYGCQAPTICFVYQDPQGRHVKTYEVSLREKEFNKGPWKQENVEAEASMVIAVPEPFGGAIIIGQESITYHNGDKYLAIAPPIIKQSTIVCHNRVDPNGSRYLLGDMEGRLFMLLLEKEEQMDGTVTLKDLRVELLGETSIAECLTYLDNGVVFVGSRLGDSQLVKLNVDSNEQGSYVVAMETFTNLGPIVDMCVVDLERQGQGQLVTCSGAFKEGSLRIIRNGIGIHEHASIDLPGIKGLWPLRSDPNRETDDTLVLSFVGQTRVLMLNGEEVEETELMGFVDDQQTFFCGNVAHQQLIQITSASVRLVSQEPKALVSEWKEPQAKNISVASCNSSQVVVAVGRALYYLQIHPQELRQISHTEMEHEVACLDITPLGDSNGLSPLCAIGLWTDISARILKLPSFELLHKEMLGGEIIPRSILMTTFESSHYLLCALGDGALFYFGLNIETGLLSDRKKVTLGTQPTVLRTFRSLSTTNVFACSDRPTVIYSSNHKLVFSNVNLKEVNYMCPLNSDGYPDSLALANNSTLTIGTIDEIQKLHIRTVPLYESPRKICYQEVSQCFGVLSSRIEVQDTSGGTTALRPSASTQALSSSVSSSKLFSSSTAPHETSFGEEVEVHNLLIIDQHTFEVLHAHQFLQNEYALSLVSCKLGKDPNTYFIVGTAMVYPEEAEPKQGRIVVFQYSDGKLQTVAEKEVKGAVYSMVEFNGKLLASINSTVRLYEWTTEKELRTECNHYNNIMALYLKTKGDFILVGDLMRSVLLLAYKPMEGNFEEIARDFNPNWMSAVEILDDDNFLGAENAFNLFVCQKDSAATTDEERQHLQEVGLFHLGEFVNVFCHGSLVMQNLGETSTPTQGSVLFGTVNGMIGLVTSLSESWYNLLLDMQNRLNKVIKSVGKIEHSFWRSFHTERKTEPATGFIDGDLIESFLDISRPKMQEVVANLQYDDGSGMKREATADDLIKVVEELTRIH

DC50 (Cyclin E1; Cyclin E1 cellular degradation): 159 nM
Dmax (Cyclin E1; Cyclin E1 cellular degradation, maximum degradation): 107%
Ratio of GSPT1 DC50/Cyclin E1 DC50 (Cyclin E1; selectivity for degradation of Cyclin E1 over GSPT1): >88
Compound: COc1c(COC(=O)Nc2ccc(Oc3ccc(F)c(F)c3)cc2)ccc2c1C(=O)N([C@H]1CCC(=O)NC1=O)C2 (single isomer, unassigned) [Example 35, {2-[(3 S)-2,6-dioxopiperidin-3-yl]-4-methoxy-3-oxo-2,3-dihydro-1H-isoindol-5-yl}methyl N-[4-(3,4-difluorophenoxy)phenyl]carbamate]
inhibition of RB1 phosphorylation (pS807/811 Rb1): inhibited RB1 phosphorylation
